Data on 2 molecules can be found in patent publication US20250177392A1, “BROAD SPECTRUM INHIBITORS OF CYTOMEGALOVIRUS” (MICROBIOTIX, INC., priority 2022, published 2025).

The test system of one experiment is AD169^R (IE1 expression). As to the kind of experiment: Western blot (immunoblot) of IE1 expression in AD169^R-infected cells. The format is cell-based, Human cytomegalovirus. The procedure:
The molecular weight markers and respective proteins are indicated.
FIGS. 12A and B are Western Blot assays showing that MBXC-4336 limits expression of IE1 in fibroblasts and epithelial cells. Total cell lysates from AD169^R-infected (MOI 0.2) NHDF (A) and ARPE-19 (B) cells pre-treated with DMSO, MBX-4336 (0, 1, 5, 10, or 20 μM), or heparin (50 μg/mL) collected at 48 hpi were subjected to Western blot analysis using a rabbit anti-IE-1 antibody (lanes 1-7) and an anti-GAPDH antibody (lanes 8-14) as a loading control. The molecular weight markers and respective proteins are indicated.
Total cell lysates from virus infected NHDF cells treated with compounds were created through SDS-lysis (10^4/100 uL of 1% SDS) of at least three rounds of heating at 95° C. for 3 min and vigorous agitation. The total cell lysates were resolved using an SDS-polyacrylamide gel (12.5%), transferred to a PVDF membrane using a semi-dry apparatus. The membrane was then incubated with 1% BSA/PBS for 1 hr at room temperature followed by incubation with anti-IE1 and anti-GAPDH. Finally, the respective secondary antibody conjugated with HRP was incubated with membrane followed by detection using ECL reagents (Millipore).
Next, inhibition of the expression of IE1 in AD169^R-infected cells treated with MBX-4992 was examined by immunoblot analysis (FIG. 4E). […] Collectively, these findings further indicate that MBX-4992 effectively prevents the expression of the immediate-early genes during a CMV infection.

Experiment [1] relates to AD169^R CMV virus. As to the kind of experiment: Plaque reduction (dissemination) assay, prophylactic treatment. Format: cell-based, Human cytomegalovirus. On the procedure: (§1) FIG. 8A-H are fluorescence images (A & B) and graphs showing that NAPA compounds MBX-4992 and MBXC-4336 work in both prophylactic and therapeutic settings to inhibit HCMV infection. ARPE-19 cells (A to D) and NHDF cells (E and F) treated with increasing concentrations (0, 1, 5, 20, and 50 μM) of MBX-4992, MBXC-4336, or ganciclovir (2.5 μM) were infected with AD169^R (MOI 0.025) and analyzed for viral plaques of >5,000 μm^2 (C and E) and >10,000 μm^2 (D and F) based on GFP fluorescence. The representative images of plaques from AD169^R-infected ARPE-19 cells treated MBX-4992, MBXC-4336, ganciclovir are shown (A and B). MBX-4992, MBXC-4336 (G and H), and ganciclovir treatment at 48 hpi of AD169^R-infected ARPE-19 cells (MOI 0.025) were analyzed for virus plaques >5,000 μm^2 and >10,000 μm^2 at 10 dpi. The normalized plaque number was designated to be 100 based on plaques from DMSO treated cells. Statistical tests were performed using ordinary one-way ANOVA with multiple comparisons to DMSO treated cells as a control and a Dunnett's post-test; *, p<0.05; **, p<0.01; ***, p<0.001; ****, p<0.0001.
For the prophylactic treatment analysis, the plaque assay was performed on ARPE-19 and NHDF cells (4×10^4) in a 24-well plate. The cells were pretreated for 1 hour with either MBX-4992 or MBXC-4336 (1-50 μM), DMSO, or ganciclovir (2.5 μM) and followed by virus infection with AD169^R. Following a 2-hour incubation at 37° C., the inoculum was removed and cells were overlaid with 1% low melt sea agarose. Upon solidification of the agarose, MBX-4992, MBXC-4336, DMSO, or ganciclovir in media was added at the indicated concentration. The drugs were replaced every 3 days. The cells were examined using Brightfield and GFP fluorescence to quantify the number and size of virus plaques using a Celigo Cytometer at 10 dpi.
To address whether NAPA compounds can limit virus dissemination in epithelial cells, we analyzed the inhibitory properties of MBX-4992 and MBXC-4336 using a plaque reduction assay by designating a cluster of virus infected cells as a virus plaque (Parsons et al., Antivir. Res., 193:105124 (2021)) The results are shown in FIG. 8A-H.
To evaluate the prophylactic function of the NAPA compounds, ARPE-19 cells and NHDF cells treated with DMSO, MBX-4992, MBXC-4336 (0-50 μM), or ganciclovir (2.5 μM) were infected with AD169^R CMV virus and analyzed for virus plaques at 10 dpi based on GFP fluorescence (FIG. 8A-F). A cluster of virus infected cells was designated a viral plaque based on an average cluster area of 5,000 μm^2 or 10,000 μm^2 (FIG. 8A-B) using a Celigo cytometer.

Experiment [2] relates to AD169^R CMV virus. As to the kind of experiment: Plaque reduction assay, therapeutic treatment at 48 hpi. Format: cell-based, Human cytomegalovirus. To be noted: Human betaherpesvirus 5, AD169, ARPE-19, read-out: IC50 of plaque reduction (>5,000 μm^2 and >10,000 μm^2). The procedure: as §1
For therapeutic treatment, ARPE-19 cells (4×10^4) were plated in a 24-well plate. […] The cells were examined using brightfield and YFP fluorescence to quantify the number and plaques using the Celigo Cytometer at 14. […]

The next experiment relates to HHV-8 BCBL-1. Description: Herpes virus panel neutralization, HHV-8. The format is cell-based, Human herpes virus 8. On the procedure: To determine the specificity of MBX-4992, additional neutralization experiments were conducted using a panel of herpes viruses performed in the presence of MBX-4992. […] Collectively, the antiviral activity of MBX-4992 is equivalent to that of GCV indicating specific inhibition of CMV replication.

Where [3] appears, read: Human betaherpesvirus 5, AD169, ARPE-19, read-out: IC50 of virus plaque reduction.
The mark [4] stands for this setting: Human betaherpesvirus 5, AD169, Fibroblast, read-out: IC50 of virus plaque reduction.

The structures appear in SMILES notation.

`Cc1nc(Nc2cccc(NC(=O)c3ccco3)c2)cc(N2CCCCC2)n1` [MBXC-4336]: the “IE1 expression by immunoblot” value in the experiment on AD169^R (IE1 expression) (NHDF and ARPE-19 cells, 48 hpi (FIG. 12)) is on record as “effectiveness of MBXC-4336 was validated”. Moreover, the figures for the IC50 in the experiment with AD169^R CMV virus [1] (setting [3]), in the experiment with AD169^R CMV virus [1] (setting [4]) and in the experiment on AD169^R CMV virus [2] were 1.7 µM, 4 µM and approximately 9 µM, respectively.

Take `Cc1nc(Nc2ccc(NC(=O)c3ccco3)cc2)cc(N2CCCC2)n1` [MBX-4992]: in the experiment with AD169^R (IE1 expression) (NHDF cells, 24 hpi, MBX-4992 1-10 μM, ganciclovir 5 μM, convallotoxin 0.01 μM), the “IE1 expression by immunoblot” value is given as “concentration dependent decrease in IE1 expression”. The molecule further displayed an SI in the experiment with HHV-8 BCBL-1 of more than 10. Also, the IC50 in the experiment on HHV-8 BCBL-1 (Homo sapiens, BCBL1) was 10 µM; in the experiment with AD169^R CMV virus [1] (setting [3]), 6.5 µM; with AD169^R CMV virus [1] (setting [4]) it was 12 µM; in the experiment on AD169^R CMV virus [2] it was approximately 9 µM.
